Assay results published in US20230295164A1, “COMPOUNDS HAVING ANTIBACTERIAL ACTIVITY” (The Trustees of Princeton University, priority 2020, published 2023).
Converted amounts (≈) assume the structure as drawn.

Assays:
[1] = system: Acinetobacter baumannii, ATCC 17978; assay: MIC testing, broth microdilution in CAMHB; assay type: cell-based; conditions: 18-20 hr, lowest concentration that completely inhibits visible growth; for Compound MICs, Acinetobacter baumannii, ATCC 17978: 37° C.; for MIC: Acinetobacter baumannii, ATCC17978, 37° C., read-out: Compound MICs, Acinetobacter baumannii, ATCC 17978
Protocol: (§1) Compounds 1-71 were subsequently tested to determine MICs of the compounds relative to the following five species/strains of bacteria: Staphylococcus aureus, NRS384; Enterococcus faecalis, ATCC 51575; Salmonella typhimurium, CMCC 50115; Escherichia coli, ATCC BAA-198; and Acinetobacter baumannii, ATCC 17978. MIC testing of compounds was conducted according to the following protocol.
(§2) For each strain to be tested, made fresh streaks onto CAMHA from −80° C. glycerol stocks.
(§3) • CAMHB: Dissolved 22 g of the powder per 1 L of purified water. Mixed well. Autoclaved at 121° C. for 10 minutes. Stored at room temperature (RT) for no more than 1 week. • Saline: Dissolved 9 g of the powder per 1 L of purified water. Mixed well. Autoclaved at 121° C. for 30 minutes. Stored at room temperature (RT) for no more than 1 week.
(§4) Prepared the stock solutions of the tested compounds.
(§5) For compounds: • a) Dispensed 20 ul compound to the wells in column 1, and 20 ul DMSO to the wells in column 2 to 12; • b) Diluted the compounds by transferring 10 ul compounds from column 1 to 20 ul DMSO in column 2; mix with pipette. • c) Repeated until column 11 to get 3×serial dilutions. Column 12 was the DMSO control.
(§6) A multichannel pipette was used to deliver 1 μl of the diluted compound into each well of the corresponding daughter plate.
(§7) Scraped 4-8 single colonies from an agar plate into 5 ml saline in a 14 ml Falcon conical tube. Vortexed the tube to suspend the bacteria. Adjusted the turbidity to ˜0.2 (corresponding to 0.5 McFarland) with an Ultrospec 10 Cell density meter.
(§8) The strain suspension was diluted 200-fold in CAMHB medium and dispense into a sterile reservoir. A multichannel pipette was then used to deliver 99 μl of the diluted inocula into each well of the corresponding daughter plate.
(§9) Incubate the daughter plates at 37° C., 85% humidity for 18-20 hr.
(§10) A magnifying mirror device was used for ease of scoring the presence or absence of growth in the wells. 96-well micro-plates were photographed.

[2] = system: Enterococcus faecalis, ATCC 51575; assay: MIC testing, broth microdilution in CAMHB; assay type: cell-based; conditions: 18-20 hr, lowest concentration that completely inhibits visible growth; for Compound MICs, Enterococcus faecalis, ATCC 51575: 37° C.; for MIC: Enterococcus faecalis, ATCC51575, 37° C., read-out: Compound MICs, Enterococcus faecalis, ATCC 51575
Protocol: as §1, §2, §3, §4, §5, §6, §7, §8, §9, §10

[3] = system: Staphylococcus aureus, NRS384; assay: MIC testing, broth microdilution in CAMHB; assay type: cell-based; conditions: 18-20 hr, lowest concentration that completely inhibits visible growth; for Compound MICs, Staphylococcus aureus, NRS384: 37° C.; for MIC: Staphylococcus aureus, NRS384, 37° C., read-out: Compound MICs, Staphylococcus aureus, NRS384
Protocol: as §1, §2, §3, §4, §5, §6, §7, §8, §9, §10

[4] = system: Salmonella typhimurium, CMCC 50115; assay: MIC testing, broth microdilution in CAMHB; assay type: cell-based; conditions: 37° C., 18-20 hr, lowest concentration that completely inhibits visible growth; for MIC: Salmonella enterica, read-out: Compound MICs, Salmonella typhimurium, CMCC 50115
Protocol: as §1, §2, §3, §4, §5, §6, §7, §8, §9, §10

[5] = system: Escherichia coli, ATCC BAA-198; assay: MIC testing, broth microdilution in CAMHB; assay type: cell-based; conditions: 18-20 hr, lowest concentration that completely inhibits visible growth; for Compound MICs, Escherichia coli, ATCC BAA-198: 37° C.; for MIC: Escherichia coli, ATCCBAA198, 37° C., read-out: Compound MICs, Escherichia coli, ATCC BAA-198
Protocol: as §1, §2, §3, §4, §5, §6, §7, §8, §9, §10

[6] = system: P. aeruginosa PA14; assay: MIC testing against P. aeruginosa PA14, same protocol; assay type: cell-based, Pseudomonas aeruginosa; conditions: according to the protocol above
Protocol: For each strain to be tested, made fresh streaks onto CAMHA from −80° C. glycerol stocks. • CAMHB: Dissolved 22 g of the powder per 1 L of purified water. Mixed well. Autoclaved at 121° C. for 10 minutes. Stored at room temperature (RT) for no more than 1 week. • Saline: Dissolved 9 g of the powder per 1 L of purified water. Mixed well. Autoclaved at 121° C. for 30 minutes. Stored at room temperature (RT) for no more than 1 week. Prepared the stock solutions of the tested compounds. For compounds: • a) Dispensed 20 ul compound to the wells in column 1, and 20 ul DMSO to the wells in column 2 to 12; • b) Diluted the compounds by transferring 10 ul compounds from column 1 to 20 ul DMSO in column 2; mix with pipette. • c) Repeated until column 11 to get 3×serial dilutions. Column 12 was the DMSO control. A multichannel pipette was used to deliver 1 μl of the diluted compound into each well of the corresponding daughter plate. Scraped 4-8 single colonies from an agar plate into 5 ml saline in a 14 ml Falcon conical tube. Vortexed the tube to suspend the bacteria. Adjusted the turbidity to ˜0.2 (corresponding to 0.5 McFarland) with an Ultrospec 10 Cell density meter. The strain suspension was diluted 200-fold in CAMHB medium and dispense into a sterile reservoir. A multichannel pipette was then used to deliver 99 μl of the diluted inocula into each well of the corresponding daughter plate. Incubate the daughter plates at 37° C., 85% humidity for 18-20 hr. […] A magnifying mirror device was used for ease of scoring the presence or absence of growth in the wells. 96-well micro-plates were photographed. […]

Structure (SMILES) | Compound MICs, Acinetobacter baumannii, ATCC 17978 [1] [µg/mL] | Compound MICs, Enterococcus faecalis, ATCC 51575 [2] [µg/mL] | Compound MICs, Staphylococcus aureus, NRS384 [3] [µg/mL] | Compound MICs, Salmonella typhimurium, CMCC 50115 [4] [µg/mL] | Compound MICs, Escherichia coli, ATCC BAA-198 [5] [µg/mL] | MICs against P. aeruginosa PA14 [6] [µg/mL] | MIC [1] [µg/mL] | MIC [2] [µg/mL] | MIC [3] [µg/mL] | MIC [4] [µg/mL] | MIC [5] [µg/mL] | MIC ([6]; Pseudomonas aeruginosa, PA14, read-out: MICs against P. aeruginosa PA14) [µg/mL]
Nc1nc(N)c2c(ccc3c2ccn3-c2ccc(F)cc2)n1 [Compound 40] | 2.37 | 0.09 | 0.26 | 0.26 | 7.11 | 45 | – | – | – | – | – | –
Nc1nc(NC2CC2)nc2ccc3c(ccn3Cc3ccc(C#CC4CC4)cc3)c12 [Compound 20] | 64 | 0.79 | 2.37 | 21.3 | >64 | – | – | – | – | – | – | –
Nc1nc(N)c2c(ccc3c2ccn3Cc2ccc(F)c(F)c2)n1 [Compound 13] | – | – | – | – | – | – | 2.37 (≈ 7.29 µM) | 0.01 (≈ 0.0307 µM) | 0.088 (≈ 0.271 µM) | 0.088 (≈ 0.271 µM) | 7.11 (≈ 21.9 µM) | –
Nc1nc(N)c2c(ccc3c2ccn3Cc2ccc(C(F)(F)F)nc2)n1 [Compound 50] | 7.11 | 0.003 | 0.09 | 0.03 | 7.11 | – | – | – | – | – | – | –

More lines, now with the values ahead:

Compound MICs, Acinetobacter baumannii, ATCC 17978 [1] [µg/mL] | Compound MICs, Enterococcus faecalis, ATCC 51575 [2] [µg/mL] | Compound MICs, Staphylococcus aureus, NRS384 [3] [µg/mL] | Compound MICs, Salmonella typhimurium, CMCC 50115 [4] [µg/mL] | Compound MICs, Escherichia coli, ATCC BAA-198 [5] [µg/mL] | MICs against P. aeruginosa PA14 [6] [µg/mL] | MIC [1] [µg/mL] | MIC [2] [µg/mL] | MIC [3] [µg/mL] | MIC [4] [µg/mL] | MIC [5] [µg/mL] | MIC ([6]; Pseudomonas aeruginosa, PA14, read-out: MICs against P. aeruginosa PA14) [µg/mL] | Structure (SMILES)
2.37 | 0.01 | 0.26 | 0.003 | 7.11 | 6.3 | – | – | – | – | – | – | Nc1nc(N)c2c(ccc3c2ccn3Cc2ccc(F)nc2)n1 [Compound 45]
– | – | – | – | – | – | 0.79 (≈ 2.57 µM) | 0.01 (≈ 0.0325 µM) | 0.088 (≈ 0.286 µM) | 0.088 (≈ 0.286 µM) | 2.37 (≈ 7.71 µM) | 25 (≈ 81.3 µM) | Nc1nc(N)c2c(ccc3c2ccn3Cc2ccc(F)cc2)n1 [Compound 10]
0.79 | ≤0.001 | 0.09 | 0.003 | 7.11 | 12.5 | – | – | – | – | – | – | Nc1nc(N)c2c(ccc3c2ccn3Cc2cccc(F)n2)n1 [Compound 48]
